In the kinase profiling compilation of Christmann-Franck et al. (2016):

What was measured:
Assay in all cases: KINOMEscan competition binding
Settings in all cases: compound 10.0 µM
MAP3K3 (human) = MAP3K3 (human) (UniProt Q99759)
STK39 (human) = STK39 (human) (UniProt Q9UEW8)
[1] = tested on: FGFR3 (human), P22607 [G697C]
LYN (human) = LYN (human) (UniProt P07948)
MYO3B (human) = MYO3B (human) (UniProt Q8WXR4)
AKT3 (human) = AKT3 (human) (UniProt Q9Y243)
STK17B (human) = STK17B (human) (UniProt O94768)
Sequence of STK17B (human) (O94768 whole entry, looked up): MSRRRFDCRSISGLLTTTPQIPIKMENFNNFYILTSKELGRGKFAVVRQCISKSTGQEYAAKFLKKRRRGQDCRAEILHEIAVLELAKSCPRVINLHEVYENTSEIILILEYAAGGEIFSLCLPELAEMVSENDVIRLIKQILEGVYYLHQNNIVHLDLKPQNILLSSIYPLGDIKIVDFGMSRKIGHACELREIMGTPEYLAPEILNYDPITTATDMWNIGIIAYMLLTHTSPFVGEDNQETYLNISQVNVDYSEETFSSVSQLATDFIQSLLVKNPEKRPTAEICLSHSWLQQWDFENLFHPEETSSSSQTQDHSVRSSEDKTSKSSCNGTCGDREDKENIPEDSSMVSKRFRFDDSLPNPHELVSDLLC

CDC42BPG (human) = CDC42BPG (human) (UniProt Q6DT37)
MAPK1 (human) = MAPK1 (human) (UniProt P28482)
PRKD3 (human) = PRKD3 (human) (UniProt O94806)
Sequence of PRKD3 (human) (O94806 whole entry, looked up): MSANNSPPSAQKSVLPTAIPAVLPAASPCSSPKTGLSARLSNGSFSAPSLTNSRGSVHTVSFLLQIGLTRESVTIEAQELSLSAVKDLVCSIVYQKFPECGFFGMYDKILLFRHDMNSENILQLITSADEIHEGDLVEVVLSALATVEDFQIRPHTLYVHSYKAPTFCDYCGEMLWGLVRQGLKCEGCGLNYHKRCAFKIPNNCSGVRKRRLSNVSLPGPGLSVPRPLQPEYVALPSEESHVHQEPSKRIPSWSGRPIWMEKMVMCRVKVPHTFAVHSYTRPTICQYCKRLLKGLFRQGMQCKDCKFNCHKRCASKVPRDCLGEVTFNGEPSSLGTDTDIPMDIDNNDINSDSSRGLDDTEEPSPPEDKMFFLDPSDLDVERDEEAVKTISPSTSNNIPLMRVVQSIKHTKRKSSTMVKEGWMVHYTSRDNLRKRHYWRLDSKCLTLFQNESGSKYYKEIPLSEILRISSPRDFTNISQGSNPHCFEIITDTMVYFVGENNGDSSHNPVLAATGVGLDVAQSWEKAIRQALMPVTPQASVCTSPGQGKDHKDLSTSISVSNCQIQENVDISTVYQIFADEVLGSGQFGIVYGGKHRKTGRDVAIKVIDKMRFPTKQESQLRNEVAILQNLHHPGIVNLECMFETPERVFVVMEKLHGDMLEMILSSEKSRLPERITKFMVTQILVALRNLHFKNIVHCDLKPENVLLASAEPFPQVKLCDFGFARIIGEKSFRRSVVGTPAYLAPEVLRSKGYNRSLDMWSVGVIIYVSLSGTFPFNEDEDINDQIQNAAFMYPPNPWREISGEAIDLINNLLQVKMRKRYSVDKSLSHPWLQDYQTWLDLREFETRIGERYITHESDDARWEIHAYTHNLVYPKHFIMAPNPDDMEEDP

IKBKE (human) = IKBKE (human) (UniProt Q14164)
CAMK2G (human) = CAMK2G (human) (UniProt Q13555)
[2] = tested on: FLT3 (human), P36888 [D835Y]
BRSK2 (human) = BRSK2 (human) (UniProt Q8IWQ3)
CDC2L2 (human) = CDC2L2 (human) (UniProt Q9UQ88)
DCLK3 (human) = DCLK3 (human) (UniProt Q9C098)
RPS6KA2 KD2 (human) = RPS6KA2 KD2 (human) (UniProt Q15349)
Sequence of RPS6KA2 KD2 (human) (Q15349 whole entry, looked up): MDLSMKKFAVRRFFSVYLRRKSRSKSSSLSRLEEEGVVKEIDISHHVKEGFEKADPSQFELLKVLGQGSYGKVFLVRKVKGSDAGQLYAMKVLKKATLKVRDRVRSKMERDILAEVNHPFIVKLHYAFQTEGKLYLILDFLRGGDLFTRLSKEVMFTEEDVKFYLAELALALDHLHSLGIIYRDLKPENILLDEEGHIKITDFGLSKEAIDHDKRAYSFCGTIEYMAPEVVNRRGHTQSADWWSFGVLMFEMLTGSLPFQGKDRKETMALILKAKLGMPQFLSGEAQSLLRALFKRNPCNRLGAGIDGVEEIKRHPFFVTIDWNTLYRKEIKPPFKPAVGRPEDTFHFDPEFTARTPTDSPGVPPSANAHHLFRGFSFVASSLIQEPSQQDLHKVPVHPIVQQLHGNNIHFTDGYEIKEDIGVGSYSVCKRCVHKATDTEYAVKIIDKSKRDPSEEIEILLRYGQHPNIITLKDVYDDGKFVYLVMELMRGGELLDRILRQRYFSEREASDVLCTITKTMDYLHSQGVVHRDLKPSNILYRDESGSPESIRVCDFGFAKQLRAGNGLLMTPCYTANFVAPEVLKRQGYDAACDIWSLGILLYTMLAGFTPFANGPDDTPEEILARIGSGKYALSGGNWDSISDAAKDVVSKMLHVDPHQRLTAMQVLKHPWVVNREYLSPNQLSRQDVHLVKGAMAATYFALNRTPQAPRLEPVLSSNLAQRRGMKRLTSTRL

ACVRL1 (human) = ACVRL1 (human) (UniProt P37023)
CDK18 (human) = CDK18 (human) (UniProt Q07002)
NLK (human) = NLK (human) (UniProt Q9UBE8)
NUAK1 (human) = NUAK1 (human) (UniProt O60285)
EPHA4 (human) = EPHA4 (human) (UniProt P54764)
TEC (human) = TEC (human) (UniProt P42680)
PIP4K2B (human) = PIP4K2B (human) (UniProt P78356)
IKBKB (human) = IKBKB (human) (UniProt O14920)
BLK (human) = BLK (human) (UniProt P51451)
NEK7 (human) = NEK7 (human) (UniProt Q8TDX7)
Sequence of NEK7 (human) (Q8TDX7 whole entry, looked up): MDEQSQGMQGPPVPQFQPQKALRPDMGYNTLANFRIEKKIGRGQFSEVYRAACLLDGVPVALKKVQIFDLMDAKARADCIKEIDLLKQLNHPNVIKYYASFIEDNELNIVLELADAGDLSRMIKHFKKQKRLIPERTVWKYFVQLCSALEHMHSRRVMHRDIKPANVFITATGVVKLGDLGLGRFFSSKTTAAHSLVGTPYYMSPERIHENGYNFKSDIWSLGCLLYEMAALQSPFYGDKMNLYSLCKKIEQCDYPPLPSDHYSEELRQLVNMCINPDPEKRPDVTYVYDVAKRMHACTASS

AURKC (human) = AURKC (human) (UniProt Q9UQB9)
EPHB1 (human) = EPHB1 (human) (UniProt P54762)
Sequence of EPHB1 (human) (P54762 whole entry, looked up): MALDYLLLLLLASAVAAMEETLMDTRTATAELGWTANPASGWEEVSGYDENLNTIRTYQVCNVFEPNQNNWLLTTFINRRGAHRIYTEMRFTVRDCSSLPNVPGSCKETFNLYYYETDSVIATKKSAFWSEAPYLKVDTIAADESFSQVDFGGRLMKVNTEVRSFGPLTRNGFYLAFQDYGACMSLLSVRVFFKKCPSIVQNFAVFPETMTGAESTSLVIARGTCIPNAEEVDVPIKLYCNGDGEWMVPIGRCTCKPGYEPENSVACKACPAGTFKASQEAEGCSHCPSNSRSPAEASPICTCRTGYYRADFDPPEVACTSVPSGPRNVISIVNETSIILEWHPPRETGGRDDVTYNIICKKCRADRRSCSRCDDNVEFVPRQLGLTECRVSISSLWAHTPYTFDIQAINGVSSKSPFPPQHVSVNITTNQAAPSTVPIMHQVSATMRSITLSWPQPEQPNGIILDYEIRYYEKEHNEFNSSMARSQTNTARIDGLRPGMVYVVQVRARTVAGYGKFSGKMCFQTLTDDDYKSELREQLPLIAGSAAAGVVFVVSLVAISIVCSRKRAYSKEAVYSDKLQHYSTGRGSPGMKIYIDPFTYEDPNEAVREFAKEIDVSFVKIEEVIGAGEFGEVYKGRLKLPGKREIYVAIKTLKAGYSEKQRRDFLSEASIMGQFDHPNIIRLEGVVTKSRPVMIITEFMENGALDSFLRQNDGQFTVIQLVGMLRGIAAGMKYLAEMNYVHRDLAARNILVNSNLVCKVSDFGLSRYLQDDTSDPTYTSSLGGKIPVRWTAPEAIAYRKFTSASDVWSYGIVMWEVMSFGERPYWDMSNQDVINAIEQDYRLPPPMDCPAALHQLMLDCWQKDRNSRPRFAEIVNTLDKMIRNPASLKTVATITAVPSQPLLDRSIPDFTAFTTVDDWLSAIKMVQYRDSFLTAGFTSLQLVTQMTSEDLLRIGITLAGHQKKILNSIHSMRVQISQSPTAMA

MAP4K2 (human) = MAP4K2 (human) (UniProt Q12851)
CSK (human) = CSK (human) (UniProt P41240)
DAPK2 (human) = DAPK2 (human) (UniProt Q9UIK4)
CAMK1G (human) = CAMK1G (human) (UniProt Q96NX5)
STK16 (human) = STK16 (human) (UniProt O75716)
CHUK (human) = CHUK (human) (UniProt O15111)
Sequence of CHUK (human) (O15111 whole entry, looked up): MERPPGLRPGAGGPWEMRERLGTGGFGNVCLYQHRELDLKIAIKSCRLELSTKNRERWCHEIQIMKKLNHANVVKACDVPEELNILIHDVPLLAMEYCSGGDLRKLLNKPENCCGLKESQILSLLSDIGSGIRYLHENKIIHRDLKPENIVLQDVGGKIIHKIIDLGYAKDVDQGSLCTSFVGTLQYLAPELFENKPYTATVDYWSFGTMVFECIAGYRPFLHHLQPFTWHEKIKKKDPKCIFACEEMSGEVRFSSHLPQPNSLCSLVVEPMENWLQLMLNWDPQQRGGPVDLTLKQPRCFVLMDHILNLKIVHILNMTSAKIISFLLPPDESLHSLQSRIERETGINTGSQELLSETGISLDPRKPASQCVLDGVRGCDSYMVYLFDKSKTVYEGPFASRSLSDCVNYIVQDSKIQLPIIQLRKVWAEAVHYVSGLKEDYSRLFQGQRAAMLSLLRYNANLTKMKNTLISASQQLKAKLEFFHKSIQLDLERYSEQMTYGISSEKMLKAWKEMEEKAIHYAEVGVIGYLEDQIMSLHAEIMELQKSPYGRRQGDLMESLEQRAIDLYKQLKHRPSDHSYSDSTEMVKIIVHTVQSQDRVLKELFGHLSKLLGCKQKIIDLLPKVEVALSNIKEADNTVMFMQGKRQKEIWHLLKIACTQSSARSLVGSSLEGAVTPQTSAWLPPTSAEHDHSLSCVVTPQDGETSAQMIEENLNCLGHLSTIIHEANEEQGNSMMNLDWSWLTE

[3] = molecular target: JAK1 JH2 pseudokinase (human) (UniProt P23458)
MAPK13 (human) = MAPK13 (human) (UniProt O15264)
Sequence of MAPK13 (human) (O15264 whole entry, looked up): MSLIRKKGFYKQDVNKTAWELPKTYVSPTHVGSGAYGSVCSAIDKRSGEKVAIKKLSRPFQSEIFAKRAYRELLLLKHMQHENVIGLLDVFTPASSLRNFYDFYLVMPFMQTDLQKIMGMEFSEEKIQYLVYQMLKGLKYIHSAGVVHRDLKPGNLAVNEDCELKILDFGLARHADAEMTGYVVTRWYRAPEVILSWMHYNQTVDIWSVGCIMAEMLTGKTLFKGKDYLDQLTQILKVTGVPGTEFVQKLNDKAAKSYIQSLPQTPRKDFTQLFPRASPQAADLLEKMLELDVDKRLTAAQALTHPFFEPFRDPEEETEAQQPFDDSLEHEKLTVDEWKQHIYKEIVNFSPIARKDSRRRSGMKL

TXK (human) = TXK (human) (UniProt P42681)
[4] = tested on: EGFR (human), P00533 [G719C]
PRKACB (human) = PRKACB (human) (UniProt P22694)

Sequence of MAP3K3 (human) (Q99759 whole entry, looked up): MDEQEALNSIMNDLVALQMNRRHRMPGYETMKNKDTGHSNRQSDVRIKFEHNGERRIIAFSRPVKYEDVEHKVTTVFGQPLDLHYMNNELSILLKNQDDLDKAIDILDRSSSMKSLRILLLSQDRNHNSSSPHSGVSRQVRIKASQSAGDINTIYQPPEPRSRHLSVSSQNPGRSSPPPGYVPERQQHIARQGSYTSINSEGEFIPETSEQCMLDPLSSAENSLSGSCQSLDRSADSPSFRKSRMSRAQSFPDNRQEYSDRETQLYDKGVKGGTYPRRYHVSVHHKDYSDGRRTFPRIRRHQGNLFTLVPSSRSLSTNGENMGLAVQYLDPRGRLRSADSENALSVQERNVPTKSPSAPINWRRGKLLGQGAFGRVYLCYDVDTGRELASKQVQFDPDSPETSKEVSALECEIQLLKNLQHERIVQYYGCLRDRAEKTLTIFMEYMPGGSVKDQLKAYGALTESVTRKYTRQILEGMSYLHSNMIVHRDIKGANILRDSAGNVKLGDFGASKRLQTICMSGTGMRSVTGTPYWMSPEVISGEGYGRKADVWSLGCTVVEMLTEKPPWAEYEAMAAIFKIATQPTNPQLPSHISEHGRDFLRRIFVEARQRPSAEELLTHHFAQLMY

Row | SMILES | kinase still bound, per cent of control (MAP3K3 (human)) [%] | kinase still bound, per cent of control [1] [%] | kinase still bound, per cent of control (LYN (human)) [%] | kinase still bound, per cent of control (MYO3B (human)) [%] | kinase still bound, per cent of control (STK17B (human)) [%] | kinase still bound, per cent of control (CDC42BPG (human)) [%] | kinase still bound, per cent of control (MAPK1 (human)) [%] | kinase still bound, per cent of control (PRKD3 (human)) [%] | kinase still bound, per cent of control (IKBKE (human)) [%] | kinase still bound, per cent of control (CAMK2G (human)) [%] | kinase still bound, per cent of control [2] [%] | kinase still bound, per cent of control (BRSK2 (human)) [%] | kinase still bound, per cent of control (CDC2L2 (human)) [%] | kinase still bound, per cent of control (DCLK3 (human)) [%] | kinase still bound, per cent of control (RPS6KA2 KD2 (human)) [%] | kinase still bound, per cent of control (ACVRL1 (human)) [%] | kinase still bound, per cent of control (CDK18 (human)) [%] | kinase still bound, per cent of control (NLK (human)) [%] | kinase still bound, per cent of control (NUAK1 (human)) [%] | kinase still bound, per cent of control (EPHA4 (human)) [%] | other results
1 | CC1=C(C(=O)Nc2cc3cn[nH]c3cc2F)C(c2ccc(C(F)(F)F)cc2)CC(=O)N1 (stereo unspecified) | 82 | 84 | 72 | 100 | 100 | 83 | 50 | 81 | 77 | 97 | 74 | 90 | 96 | 70 | 94 | 100 | 100 | 92 | 28 | 78 | kinase still bound, per cent of control (STK39 (human)): 86%; kinase still bound, per cent of control (AKT3 (human)): 40%; kinase still bound, per cent of control (TEC (human)): 19%; kinase still bound, per cent of control (PIP4K2B (human)): 100%; kinase still bound, per cent of control (IKBKB (human)): 86%; kinase still bound, per cent of control (BLK (human)): 12%; kinase still bound, per cent of control (NEK7 (human)): 78%; kinase still bound, per cent of control (AURKC (human)): 33%; kinase still bound, per cent of control (EPHB1 (human)): 91%; kinase still bound, per cent of control (MAP4K2 (human)): 96%; kinase still bound, per cent of control (CSK (human)): 100%; kinase still bound, per cent of control (DAPK2 (human)): 92%; kinase still bound, per cent of control (CAMK1G (human)): 81%; kinase still bound, per cent of control (STK16 (human)): 100%; kinase still bound, per cent of control (CHUK (human)): 100%; kinase still bound, per cent of control [3]: 100%; kinase still bound, per cent of control (MAPK13 (human)): 98%; kinase still bound, per cent of control (TXK (human)): 83%; kinase still bound, per cent of control [4]: 37%
2 | COc1cc(C)c(Sc2cnc(NC(=O)c3ccc(CNC(C)C(C)C)cc3)s2)cc1C(=O)N1CCN(C(C)=O)CC1 (stereo unspecified) | 100 | 100 | 100 | 100 | 100 | 100 | 100 | 100 | 100 | 100 | 26 | 100 | 100 | 4.2 | 100 | 100 | 100 | 100 | 100 | 100 | kinase still bound, per cent of control (AKT3 (human)): 100%; kinase still bound, per cent of control (PRKACB (human)): 100%; kinase still bound, per cent of control (TEC (human)): 25%; kinase still bound, per cent of control (PIP4K2B (human)): 100%; kinase still bound, per cent of control (IKBKB (human)): 100%; kinase still bound, per cent of control (BLK (human)): 100%; kinase still bound, per cent of control (NEK7 (human)): 14%; kinase still bound, per cent of control (AURKC (human)): 100%; kinase still bound, per cent of control (EPHB1 (human)): 24%; kinase still bound, per cent of control (MAP4K2 (human)): 100%; kinase still bound, per cent of control (CSK (human)): 100%; kinase still bound, per cent of control (DAPK2 (human)): 28%; kinase still bound, per cent of control (CAMK1G (human)): 100%; kinase still bound, per cent of control (STK16 (human)): 100%; kinase still bound, per cent of control (CHUK (human)): 100%; kinase still bound, per cent of control [3]: 100%; kinase still bound, per cent of control (MAPK13 (human)): 100%; kinase still bound, per cent of control (TXK (human)): 100%; kinase still bound, per cent of control [4]: 100%
3 | COc1cc2ncnc(Nc3cccc(Cl)c3)c2cc1OC | 6.6 | 100 | 11 | 100 | 40 | 56 | 100 | 88 | 55 | 77 | 11 | 45 | 77 | 52 | 90 | 100 | 79 | 43 | 98 | 72 | kinase still bound, per cent of control (STK39 (human)): 57%; kinase still bound, per cent of control (PRKACB (human)): 100%; kinase still bound, per cent of control (TEC (human)): 100%; kinase still bound, per cent of control (PIP4K2B (human)): 97%; kinase still bound, per cent of control (IKBKB (human)): 66%; kinase still bound, per cent of control (BLK (human)): 7.1%; kinase still bound, per cent of control (NEK7 (human)): 88%; kinase still bound, per cent of control (AURKC (human)): 49%; kinase still bound, per cent of control (EPHB1 (human)): 67%; kinase still bound, per cent of control (MAP4K2 (human)): 36%; kinase still bound, per cent of control (CSK (human)): 62%; kinase still bound, per cent of control (DAPK2 (human)): 60%; kinase still bound, per cent of control (CAMK1G (human)): 64%; kinase still bound, per cent of control (STK16 (human)): 97%; kinase still bound, per cent of control (CHUK (human)): 72%; kinase still bound, per cent of control [3]: 38%; kinase still bound, per cent of control (MAPK13 (human)): 100%; kinase still bound, per cent of control (TXK (human)): 63%; kinase still bound, per cent of control [4]: 0.1%
4 | COc1cc(N2CCC(C(N)=O)CC2)ccc1Nc1nc(N)c(Cl)c(Nc2ccccc2S(=O)(=O)C(C)C)n1 | 100 | 100 | 100 | 24 | 100 | 100 | 26 | 100 | 100 | 100 | 5.2 | 100 | 100 | 100 | 18 | 100 | 100 | 100 | 100 | 100 | kinase still bound, per cent of control (AKT3 (human)): 100%; kinase still bound, per cent of control (PRKACB (human)): 100%; kinase still bound, per cent of control (TEC (human)): 100%; kinase still bound, per cent of control (PIP4K2B (human)): 100%; kinase still bound, per cent of control (IKBKB (human)): 100%; kinase still bound, per cent of control (BLK (human)): 22%; kinase still bound, per cent of control (NEK7 (human)): 100%; kinase still bound, per cent of control (AURKC (human)): 100%; kinase still bound, per cent of control (EPHB1 (human)): 100%; kinase still bound, per cent of control (MAP4K2 (human)): 100%; kinase still bound, per cent of control (CSK (human)): 100%; kinase still bound, per cent of control (DAPK2 (human)): 100%; kinase still bound, per cent of control (CAMK1G (human)): 100%; kinase still bound, per cent of control (STK16 (human)): 100%; kinase still bound, per cent of control (CHUK (human)): 100%; kinase still bound, per cent of control [3]: 100%; kinase still bound, per cent of control (MAPK13 (human)): 100%; kinase still bound, per cent of control (TXK (human)): 100%; kinase still bound, per cent of control [4]: 20%
